The values below come from patent US20130253022A1 (FOX CHASE CHEMICAL DIVERSITY CENTER, INC., priority 2010, published 2013).

The EC50 is the concentration at which the effect is half-maximal. As a reminder, the ED50 is the dose at which the effect has come halfway, by size or by number of responders.

Data set [1] concerns hippocampal neurons. Put plainly: Heavy metal toxicity in hippocampal cultures, neuronal viability (CFDA). To be noted: test concentration of metal ions 10 μM, medium without antioxidants. An excerpt:
All compounds were screened with dissociated hippocampal cultures derived from embryonic day 18 rats as the primary test system. With this preparation, primary neurons were used to test for prevention of heavy metal toxicity by the disclosed compounds. In brief, hippocampal tissue was obtained commercially through Brain Bits (Springfield, Ill.) and cultures prepared as previously described (Brewer, G. J. Serum-free B27/neurobasal medium supports differentiated growth of neurons from the striatum, substantia nigra, septum, cerebral cortex, cerebellum and dentate gyms, J. Neurosci. Res., 1995, 42, 674-683). The hippocampal neurons were platted at low density (10,000 cell/well) in a 96-well format and maintained in serum-free medium consisting of Neurobasal Medium supplemented with B27 and GlutaMAX (Gibco). Pre-coated poly-L-lysine coated plates are used because of the preferential adherence and survival of hippocampal neurons on this matrix support.
Heavy metal toxicity is associated with the occurrence of seizures (Mathie et al. Zinc and copper: pharmacological probes and endogenous modulators of neuronal excitability. Pharmacol. Ther. 2006, 111, 567-583). […] To establish the dose-dependency of test agents, day 18 hippocampal cultures were utilized to study the toxicity produced after treatment with the heavy metals and neuroprotection after treatment with test compounds. […] Prior to treatment, the B27/Neural Basal media of the cultures were replaced with B27 neural basal medium without antioxidants for 18 hours. […] Further, the removal of antioxidants in the medium was performed to obtain a significant and reproducible toxic signal for heavy metal treatment of the hippocampal neurons.
Toxicity produced by heavy metals is measured by decreases in neuronal viability. Carboxyfluorescein (CFDA) was used a vital stain for all cell toxicity and neuroprotection studies. With the use of the CytoFluor fluorimeter, the CFDA assay was employed to assess the viability of neurons. CFDA is a dye that becomes fluorescent upon cell entry and cleavage by cytosolic esterases (Petroski and Geller. Selective labeling of embryonic neurons cultures on astrocyte monolayers with 5(6)-carboxyfluorescein diacetate [CFDA]. J. Neurosci. Methods 1994, 52, 23-32). Neuronal specificity is obtained relative to astrocytes because the cleaved dye is extruded extracellularlly by glia with time, while dye in neurons remains intracellular.

The subject of data set [2] is Hippocampal Cultures. Put plainly: Neuroprotection from glutamate excitotoxicity, propidium iodide (cell death) assay. The note with it: Rattus norvegicus, read-out: NP from Glutamate PI EC50. Type of data set: cell-based. An excerpt:
(§1) Cell cultures: All compounds are screened with dissociated hippocampal cultures derived from embryonic day 18 rats as the primary test system. With this preparation, primary neurons are used to test for toxicity as well as neuroprotection in a highly relevant experimental system to epilepsy. In brief, hippocampal tissue are obtained commercially through Brain Bits (Springfield, Ill.) and cultures prepared as previously described by Brewer (Brewer, G. J. Serum-free B27/neurobasal medium supports differentiated growth of neurons from the striatum, substantia nigra, septum, cerebral cortex, cerebellum and dentate gyms, J. Neurosci. Res. 1995, 42, 674-683). The hippocampal neurons are platted at low density (10,000 cell/well) in a 96-well format and maintained in serum-free medium consisting of Neurobasal Medium supplemented with B27 and GlutaMAX (Gibco). Pre-coated poly-L-lysine coated plates are used because of the preferential adherence and survival of hippocampal neurons on this matrix support.
(§2) Potent neuroprotection is the distinguishing characteristic that separates this program's anticonvulsants from all other commercial drugs for epilepsy. The experimental details and the rationale for the implemented assays are essential in differentiating these compounds from that of others. The central objective of all neuroprotective assays was their relevancy to excitotoxicity and oxidative stress related to epilepsy. Both the amount of glutamate and hydrogen peroxide used in the assays, as well as the time of treatment and duration of the experiment, were designed to be relevant to epilepsy. Further, all time parameters employed in these studies were empirically determined to be within the limits of reversible toxic events, yet using amounts of glutamate and hydrogen peroxide that were relevant to the disease. In regard to glutamate toxicity, a critical feature was the duration of treatment of the hippocampal neurons. The rational for using a short 5 min treatment with glutamate was based on the observation of Randall and Thayer (Randall, R. D.; Thayer, S. A. Glutamate-induced calcium transient triggers calcium overload and neurotoxicity in rat hippocampal neurons, J. Neurosci. 1992, 12, 1882-1895). […] The rationale is that this intense burst of glutamate and resulting calcium overload is relevant to seizures and therefore was important data to capture in the screening assay. The amount of glutamate (30 μM) employed in our screening was based on the basal levels of glutamate observed in microdialysis measurements of hippocampus from epileptogenic patients (Cavus et al. Decreased hippocampal volume on MRI is associated with increased extracellular glutamate in epilepsy patients, Epilepsia, 2008, 49, 1358-1366). In regard to hydrogen peroxide, the amount employed (10 μM) was detected in the hippocampus of rats after kainate-induced status epilepticus (Jarrett et. al., Mitochondrial DNA damage and impaired base excision repair during epileptogenesis, Neurobiol. Dis. 2008, 30, 130-138). To produce neural damage and death with these amounts of glutamate and hydrogen peroxide, the cultures were changed to a medium with significant depletion of antioxidant components in the defined medium supplement B-27 just prior to treatment with the compounds. This was performed to obtain a significant and reproducible toxic signal in the hippocampal neurons and because loss of antioxidant control may be a component of epileptogenesis (Waldbaum and Patel, Mitochondria, oxidative stress and temporal lobe epilepsy, Epilepsy Res. 2010 88, 23-45; Wu et al., Mitochondrial DNA mutation-elicited oxidative stress, oxidative damage, and altered gene expression in cultured cells of patients with MERRF syndrome, Mol. Neurobiol. 2010, 41, 256-266). Neuroprotection studies with hydrogen peroxide were conducted with cultures that were between day 12 and day 18. Studies of neuroprotection glutamate were conducted between day 19 and day 22. […]

In data set [3] the test system is Hippocampal Cultures. Put plainly: Neuroprotection from hydrogen peroxide (oxidative stress), propidium iodide assay. To be noted: Rattus norvegicus, read-out: NP from Hydrogen Peroxide PI EC50. Type of data set: cell-based.
Excerpt: as §1, §2

Data set [4] concerns Hippocampal Cultures. Put plainly: Neuroprotection from glutamate excitotoxicity, CFDA (neuronal viability) assay. Type of data set: cell-based. The note with it: Rattus norvegicus, read-out: NP from Glutamate CFDA EC50.
Excerpt: as §1
as §2, with “compounds.” for “compounds. This was performed to obtain a significant and reproducible toxic signal in the hippocampal neurons and because loss of antioxidant control may be a component of epileptogenesis (Waldbaum and Patel, Mitochondria, oxidative stress and temporal lobe epilepsy, Epilepsy Res. 2010 88, 23-45; Wu et al., Mitochondrial DNA mutation-elicited oxidative stress, oxidative damage, and altered gene expression in cultured cells of patients with MERRF syndrome, Mol. Neurobiol. 2010, 41, 256-266). Neuroprotection studies with hydrogen peroxide were conducted with cultures that were between day 12 and day 18. Studies of neuroprotection glutamate were conducted between day 19 and day 22.”

The test system of data set [5] is Hippocampal Cultures. Put plainly: Neuroprotection from hydrogen peroxide (oxidative stress), CFDA assay. Type of data set: cell-based. The note with it: Rattus norvegicus, read-out: NP from Hydrogen Peroxide CFDA EC50.
Excerpt: as §1, §2

The test system of data set [6] is MES-induced seizure spread. Put plainly: Maximal electroshock seizure (MES) test, rat. Type of data set: in vivo, rats. The note with it: po. The protocol: (§3) Seizure-related assays, Maximal electroshock test: The most definitive assay for anti-seizure activity is the maximal electroshock (MES) test (Swinyard, E. A. Laboratory evaluation of antiepileptic drugs: review of laboratory methods, Epilepsia, 1969, 10, 107-119). […] With both rodent assays, the duration of action is of high importance as well as the potency of the response.
(§4) Methods to measure anticonvulsant activity: All tests were conducted by the Anticonvulsant Screening Program (ASP) of the National Institute of Neurological Disease and Stroke at the National Institutes of Health.
(§5) The Maximal Electroshock Seizure (MES) or Maximal Seizure Pattern Test: The MES is a model for generalized tonic-clonic seizures (Putnam and Merritt. Experimental determination of the anticonvulsant properties of some phenyl derivatives. Science 1937, 85, 113-118). It is highly reproducible with consistent endpoints. The behavioral and electrographic seizures generated in this model are consistent with the human disorder. This model identifies those compounds which prevent seizure spread.
(§6) In the MES test, an electrical stimulus of 0.2 s in duration (50 mA in mice and 150 mA in rat at 60 Hz) is delivered via corneal electrodes primed with an electrolyte solution containing an anesthetic agent. Mice are tested at 30 minutes and 4 hours following doses of 30, 100 and 300 mg/kg of test compound. Test compounds are administered intraperitoneally to the mice. Rats are tested at time intervals between 0.25 and 4 hours following a standard oral dose of 30 mg/kg. Abolition of the hindlimb tonic extensor component indicates the test compound's ability to inhibit MES-induced seizure spread.
A general note: Protection in the maximal electroshock model is a classic sign of anticonvulsant action.

The test system of data set [7] is 6-Hz psychomotor seizure. Put plainly: 6 Hz psychomotor seizure test, mouse. The class given is in vivo, mice. To be noted: ip. The protocol: Methods to measure anticonvulsant activity: All tests were conducted by the Anticonvulsant Screening Program (ASP) of the National Institute of Neurological Disease and Stroke at the National Institutes of Health. The 6 Hz Seizure Test: Compounds were further tested in the 6-Hz psychomotor seizure model. (Barton et al. Pharmacological characterization of the 6 Hz psychomotor seizure model of partial epilepsy. Epilepsy Res. 2001, 47, 217-227). This model is used to detect […] that may be useful for the treatment of therapy-resistant partial seizures. For this test, an alternative electrical stimulation paradigm is used with a low frequency (6 Hz), long duration (3 seconds) corneal stimulation. The seizure evoked by this low frequency stimulation is characterized by immobility, forelimb clonus, Straub tail and facial automatisms. Mice are tested from 15 min to 4 hours following an intraperitoneal dose of 100 mg/kg. Abolition of the clonic seizures indicates the ability of a compound to prevent partial or psychomotor seizures.

Data set [8] relates to MES-induced seizure spread. Put plainly: Maximal electroshock seizure (MES) test, mouse. The class given is in vivo, mice. The protocol: as §3, §4, §5, §6
Data set [9] deals with pentylenetetrazol-induced clonic seizures. Briefly: Subcutaneous pentylenetetrazol seizure test (scPTZ), mouse. The class given is in vivo, Carworth Farms No. 1 mice. The note with it: pentylenetetrazol 85 mg/kg s.c., test compound intraperitoneally, read-out: Mouse PTZ ED50, s.c. How it is done: Methods to measure anticonvulsant activity: All tests were conducted by the Anticonvulsant Screening Program (ASP) of the National Institute of Neurological Disease and Stroke at the National Institutes of Health. The subcutaneous pentylenetetrazol (metrazol) seizure test (scPTZ). This model primarily identifies compounds that raise seizure threshold. The behavioral seizure produced is not typical of absence epilepsy but clonic in nature. With some minor exceptions, the pharmacological profile of the scPTZ seizure model is consistent with the human condition. The scPTZ test utilizes a dose of pentylenetetrazol (85 mg/kg in Carworth Farms No. 1 mice and 70 mg/kg in Sprague-Dawley rats). This produces clonic seizures lasting for a period of at least five seconds in 97 percent of animals tested. At the anticipated time of testing the convulsant is administered subcutaneously. The test compound is administered intraperitoneally in mice and orally in rats. Animals are observed over a 30 minute period. Absence of clonic spasms in the observed time period indicates a compound's ability to abolish the effect of pentylenetetrazol on seizure threshold (Swinyard E A. Laboratory evaluation of antiepileptic drugs: review of laboratory methods. Epilepsia, 1969, 10, 107-119).

The mark [10] stands for this setting: 30 μM glutamate 5 min, hippocampal cultures, 4 hour test period.
Setting [11] is: 10 μM hydrogen peroxide, hippocampal cultures, 4 hour test period.

Regarding `O.O.O.O.O.O.[Cl-].[Cl-].[Co+2]` [Cobalt Chloride hexahydrate], in data set [1], the “Loss of neuronal viability from metal” value was found to be 36%.
In the case of `CC(=O)[O-].CC(=O)[O-].O.[Cu+2]` [Copper Acetate monohydrate], the “Loss of neuronal viability from metal” value in [1] came out at 47%.
On to `NS(=O)(=O)NCC(F)c1ccccc1F` (stereo not drawn) [Example 3, 2-Fluoro-2-(2-fluoro-phenyl)-ethylsulfamide], for which the EC50 was 0.1 nM in data set [2], 0.01 nM in data set [3] (4 h), 3 nM in data set [4] and 0.01 nM in data set [5] (4 h).
As for `COc1ccccc1C(F)(F)CNS(N)(=O)=O` [Example 4, 2,2-Difluoro-2-(2-methoxyphenyl)-ethyl-1-sulfamide], the concentration for a half-maximal effect (EC50) in data set [2] amounted to 1 nM; in data set [3] (4 h), 1 nM; in data set [5] (4 h), 0.1 nM.
As to `NS(=O)(=O)NCC(F)(F)c1ccccc1` [Example 5, 2,2-difluoro-2-phenyl-ethyl-1-sulfamide], the EC50 in data set [2] (setting [10]) is 0.1 nM; in data set [3] (setting [11]), 0.03 nM; in data set [4] (setting [10]), 0.1 nM; in data set [5] (setting [11]) it was 0.1 nM. The ED50 in data set [6] is 26 mg/kg; in [7], 16 mg/kg; in data set [8] (ip, mouse) it was 49 mg/kg; in [9], 41 mg/kg. The “Duration of action MES” value in data set [8] (Mouse Maximal Electroshock (MES) test at 100 mg/kg, i.p.) amounted to 4 h.
For `NS(=O)(=O)NCC(F)(F)c1csc2ccccc12` [Example 6, 2-Benzo[b]thiophen-3-yl-2,2-difluoro-ethyl sulfamide], the half-maximal effective concentration (EC50) in data set [2] came out at 0.1 nM; in data set [3] (4 h) it was 1 nM; in data set [4], 0.1 nM; in [5] (4 h) it was 0.1 nM.
For the molecule `O.O.O.O.O.O.O=S(=O)([O-])[O-].[Fe+2]` [Iron sulfate hexahydrate], in data set [1], the “Loss of neuronal viability from metal” value turned out to be 31%.
Still for that read-out and setting: to `O.O.O.O.O.O.[Cl][Ni][Cl]` [Nickel Chloride hexahydrate] belongs 33%.
